Paper PMC10952582, “Pregnenolone sulfate analogues differentially modulate GABAA receptor closed/desensitised states” (British Journal of Pharmacology, 2023)

What was measured:
Type in all cases: cell-based, murine
α1β3γ2L GABAAR [1] = biological target: T1, α1β3γ2L GABAAR (Mus musculus, UniProt P22723+P62812+P63080); test: Whole-cell voltage-clamp electrophysiology, wild-type α1β3γ2L GABAARs expressed in HEK cells
T1 construct: expressed in transfected cells; host or cells: HEK 293 cells (ATCC CRL-1573)
T1 sequence (P62812 28-455): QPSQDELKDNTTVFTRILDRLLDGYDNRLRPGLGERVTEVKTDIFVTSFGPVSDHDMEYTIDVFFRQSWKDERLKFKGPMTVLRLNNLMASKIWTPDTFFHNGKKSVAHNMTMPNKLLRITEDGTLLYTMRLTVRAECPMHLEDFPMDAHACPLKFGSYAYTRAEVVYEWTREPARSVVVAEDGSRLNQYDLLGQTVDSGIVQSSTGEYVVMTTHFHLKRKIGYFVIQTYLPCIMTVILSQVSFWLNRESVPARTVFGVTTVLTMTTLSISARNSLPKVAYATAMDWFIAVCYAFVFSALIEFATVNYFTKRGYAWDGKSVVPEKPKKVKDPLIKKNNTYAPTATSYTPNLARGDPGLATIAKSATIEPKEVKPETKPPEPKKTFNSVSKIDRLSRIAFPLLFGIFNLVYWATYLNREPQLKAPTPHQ
T1 sequence (P63080 26-473 partner): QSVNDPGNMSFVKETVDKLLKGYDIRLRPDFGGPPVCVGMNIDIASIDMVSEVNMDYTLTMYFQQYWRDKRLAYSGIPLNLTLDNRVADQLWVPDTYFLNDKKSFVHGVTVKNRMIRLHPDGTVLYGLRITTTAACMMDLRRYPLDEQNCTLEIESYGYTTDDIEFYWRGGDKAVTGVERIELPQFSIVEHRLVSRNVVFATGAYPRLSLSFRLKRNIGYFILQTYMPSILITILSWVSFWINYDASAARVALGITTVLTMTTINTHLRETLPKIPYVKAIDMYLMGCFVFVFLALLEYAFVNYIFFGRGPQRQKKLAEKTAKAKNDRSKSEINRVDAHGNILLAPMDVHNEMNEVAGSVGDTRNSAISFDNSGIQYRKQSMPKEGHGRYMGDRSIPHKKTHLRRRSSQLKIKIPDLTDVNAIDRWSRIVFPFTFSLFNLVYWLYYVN
T1 sequence (P22723 39-474 partner): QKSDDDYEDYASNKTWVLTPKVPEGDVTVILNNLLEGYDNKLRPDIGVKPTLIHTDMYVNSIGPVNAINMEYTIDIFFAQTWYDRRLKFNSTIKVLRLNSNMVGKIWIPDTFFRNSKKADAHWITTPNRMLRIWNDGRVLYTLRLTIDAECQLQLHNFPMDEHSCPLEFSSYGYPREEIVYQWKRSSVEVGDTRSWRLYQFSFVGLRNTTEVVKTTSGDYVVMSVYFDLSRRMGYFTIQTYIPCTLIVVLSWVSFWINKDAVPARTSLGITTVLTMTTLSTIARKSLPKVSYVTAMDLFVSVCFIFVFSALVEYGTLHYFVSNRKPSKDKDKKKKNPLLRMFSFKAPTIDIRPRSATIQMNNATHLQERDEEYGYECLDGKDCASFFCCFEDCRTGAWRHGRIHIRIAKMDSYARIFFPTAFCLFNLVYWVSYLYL
Method: (§1) HEK 293 cells (ATCC Cat# CRL‐1573, RRID:CVCL_0045) were maintained and transfected under standard conditions. In brief, cells were grown in monolayers in Dulbecco's modified Eagle's medium supplemented with 10% v/v fetal calf serum, 100 U·ml^−1 of penicillin‐G and 100 μg·ml^−1 of streptomycin and incubated at 37°C in humidified 95% air/5% CO2.
(§2) Before transfection, HEK cells were plated onto 22 mm of glass coverslips (VWR) coated in poly‐L‐lysine (Sigma). Cells were transfected with α1 (wild‐type [wt] or mutant [mut]), β3 (wt), γ2L (wt or mut) and enhanced green fluorescent protein (eGFP) in an equimolar ratio (1:1:1:1), using a calcium‐phosphate precipitation protocol. The transfection solution was prepared from 4 μg of cDNA per coverslip, 20 μl of 340 mM of CaCl2 and 24 μl of 2× HEPES‐buffered saline (HBS) (50 mM of HEPES, 280 mM of NaCl and 2.8 mM of Na2HPO4). Cells were selected for electrophysiology after 16–30 h based on their morphology and moderate GFP fluorescence.
(§3) Coverslips with transfected HEK cells were transferred into a recording chamber on a Nikon Eclipse FN1 microscope with a 470‐nm LED for GFP fluorescence. Cells were continuously perfused with Krebs solution containing (mM) 140 NaCl, 4.7 KCl, 1.2 MgCl2, 2.52 CaCl2, 11 glucose and 5 HEPES (pH 7.4). Patch pipettes (thin‐walled filamented borosilicate glass capillaries; TW150F‐4; WPI, USA; 3–4 MΩ) were filled with an intracellular solution containing (mM) 140 CsCl, 2 NaCl, 2 MgCl2, 5 EGTA, 10 HEPES, 0.5 CaCl2, 2 Na‐ATP and 0.5 Na‐GTP (pH 7.2). Drugs were applied to cells using a Y‐tube delivery system (Mortensen & Smart, [2007]), with the PS analogues pre‐applied 10–12 s before co‐application with GABA.
(§4) HEK cells were voltage clamped at −30 mV using an Axopatch 200B amplifier (Molecular Devices, USA), and whole‐cell currents were filtered at 5 kHz (−36 dB), digitised at 50 kHz via a Digidata 1322A (Molecular Devices) and recorded to a Dell Optiplex 990 using Clampex 10.2 (Molecular Devices). Series resistance was compensated at 60%–70%, and only data with <20% deviation in series resistance would be included in subsequent analyses.
(§5) Weighted time constants for the decay phase (τw) were calculated by fitting a biexponential curve to the current decay waveform and applying the following equation: τw=A1.τ1+A2.τ2/A1+A2, where τ1 and τ2 represent time constants for the two exponential components of the decay phase and A1 and A2 are their relative area contributions.
(§6) Current responses from voltage‐clamp experiments were measured, and decays fitted using ClampFit 10.2 (Molecular Devices) to determine the respective time constants. In Origin, data were plotted as concentration–response curves, and curves fitted using the following inhibition equation: I/Imax=1−B^n/IC50^n+B^n, where I is the current response, B is the concentration of the PS analogue, n is the slope coefficient and IC50 is the analogue concentration producing 50% inhibition of GABA current (inhibitory potency). Potency values are presented as pIC50 with SEM values. The mean was transformed into a molar concentration by pIC50 = −log IC50. Other data are represented as the mean ± SEM.

α1β3γ2L GABAAR [2] = biological target: T2, α1β3γ2L GABAAR (Mus musculus, UniProt P62812); test: as above; settings: for mean (weighted) decay time (τw) of GABA current: 1 nM PS analogue, 30 μM GABA
T2 construct: expressed in transfected cells; host or cells: HEK 293 cells (ATCC CRL-1573)
T2 sequence (P62812 28-455): as the sequence (P62812 28-455) above
T2 sequence (P63080 26-473 partner): as the sequence (P63080 26-473 partner) above
T2 sequence (P22723 39-474 partner): as the sequence (P22723 39-474 partner) above
Method: as §1, §2, §3, §4, §5, §6

α1V296Lβ3γ2L GABAAR = biological target: T3, α1V296Lβ3γ2L GABAAR (Mus musculus, UniProt P62812, V323L); test: Whole-cell voltage-clamp electrophysiology, minimally desensitising mutant α1V296Lβ3γ2L in HEK cells
T3 construct: expressed in transfected cells; host or cells: HEK 293 cells (ATCC CRL-1573)
T3 sequence (P62812 28-455 V323L): as the sequence (P62812 28-455) above, with V296L counted along it
T3 sequence (P63080 26-473 partner): as the sequence (P63080 26-473 partner) above
T3 sequence (P22723 39-474 partner): as the sequence (P22723 39-474 partner) above
Method: as §1, §2, §3, §4, §5, §6

α1β3γ2LV262F GABAAR = biological target: T4, α1β3γ2LV262F GABAAR (Mus musculus, UniProt P62812); test: Whole-cell voltage-clamp electrophysiology, highly desensitising mutant α1β3γ2LV262F in HEK cells
T4 construct: expressed in transfected cells; host or cells: HEK 293 cells (ATCC CRL-1573)
T4 sequence (P62812 28-455): as the sequence (P62812 28-455) above
T4 sequence (P63080 26-473 partner): as the sequence (P63080 26-473 partner) above
T4 sequence (P22723 39-474 V300F partner): as the sequence (P22723 39-474 partner) above, with V262F counted along it
Method: as §1, §2, §3, §4, §5, §6

[3] = Decay inhibition (pIC50), potency for reducing GABA current weighted decay time constant, 30 μM GABA
[4] = Peak inhibition (pIC50), peak current evoked by 30 μM GABA, analogue pre-applied 10–12 s and co-applied
[5] = Steady-state inhibition (pIC50), GABA current after 20 s of 30 μM GABA (near steady state)
[6] = steady-state current after 20 s of 1 mM GABA

mean weighted decay time constant (τw) of GABA current (α1β3γ2L GABAAR [2]; wild-type α1β3γ2L, 1 mM GABA, 20 s) [s]	SMILES	IC50 (α1β3γ2L GABAAR [1]; Decay inhibition (IC50), potency for reducing GABA current weighted decay time constant, 30 μM GABA) [nM]	IC50 (α1β3γ2L GABAAR [1]; [3]) [nM]	IC50 (α1β3γ2L GABAAR [1]; Peak inhibition (IC50), peak current evoked by 30 μM GABA, analogue pre-applied 10–12 s and co-applied) [nM]	IC50 (α1β3γ2L GABAAR [1]; [4]) [nM]	IC50 (α1β3γ2L GABAAR [1]; [5]) [nM]	mean (weighted) decay time (τw) of GABA current (α1β3γ2L GABAAR [2]) [s]	extent of macroscopic desensitisation (α1β3γ2L GABAAR [2]; wild-type α1β3γ2L, steady-state current after 20 s of 1 mM GABA) [%]	mean weighted decay time constant (τw) of GABA current (α1V296Lβ3γ2L GABAAR; 1 mM GABA, 20 s) [s]	extent of macroscopic desensitisation (α1V296Lβ3γ2L GABAAR; [6]) [%]	mean weighted decay time constant (τw) of GABA current (α1β3γ2LV262F GABAAR; 1 mM GABA, 20 s) [s]	extent of macroscopic desensitisation (α1β3γ2LV262F GABAAR; [6]) [%]
	CC12CCC(OS(=O)(=O)O)CC1=CCC1C2CCC2(C)C(C(=O)CBr)CCC12 (stereo not shown) [compound 2]	880	875	2700	2650	279	3.8 ± 0.2					
3.7 ± 0.17	NCCCC(=O)O [GABA, γ‐Aminobutyric acid]							68 ± 1.6	7.4 ± 1.3	39 ± 6.0	2.3 ± 0.28	89 ± 1.3
	CC12CCC(OS(=O)(=O)O)CC1=CCC1C2CCC2(C)C(C(=O)Cn3cccc3)CCC12 (stereo not shown) [compound 8]		3230		33300	236	3.6 ± 0.3					
